Test results taken from patent US20230158102A1 (priority 2020, published 2023).
Where two headings read alike, the source gives them in different places.

Experiments:
SARS-CoV-2 = SARS-CoV-2 replication in human stem cell-derived pneumocyte like cells; format: cell-based; conditions: 10 nm plitidepsin for 1 hour before infection (4×10^4 pfu), 48 hour incubation
Procedure: Several in vitro experiments aimed at determining the effect of plitidepsin on SARS-CoV-2 were carried out and are disclosed herein. […] In another study, human stem cell-derived pneumocyte like cells were prophylactically exposed to 10 nm plitidepsin for 1 hour and then infected with SARS-CoV-2 (4×10^4 plaque forming units). After a 48 hour incubation period, both antiviral and cytotoxic plitidepsin effects were determined.

SARS-CoV-2 (COVID-19) = assay: Study APLICOV-PC (NCT04382066): efficacy in patients hospitalised for COVID-19; format: in vivo, human; conditions: for Patients requiring oxygen therapy at Day 7, (%): 168 h; for Patients discharged from hospital by Day 8, (%): 192 h; for Patients discharged from hospital by Day 15, (%) / Patients requiring oxygen therapy at Day 15, (%): 360 h

In the case of `CC[C@H](C)[C@H]1NC(=O)[C@@H](NC(=O)[C@@H](CC(C)C)N(C)C(=O)[C@@H]2CCCN2C(=O)C(C)=O)[C@@H](C)OC(=O)[C@H](Cc2ccc(OC)cc2)N(C)C(=O)[C@@H]2CCCN2C(=O)[C@H](CC(C)C)NC(=O)[C@@H](C)C(=O)[C@H](C(C)C)OC(=O)C[C@@H]1O` [PLD, (−)-(3S,6R,7S,10R,11S,15S,17S,20S,25aS)-11-hydroxy-3-(4-methoxybenzyl)-2,6,17-trimethyl-15-(1-methylethyl)-7-[[(2R)-4-methyl-2-[methyl[[(2S)-1-(2-oxopropanoyl)pyrrolidin-2-yl]carbonyl]amino]pentanoyl]amino]-10-[(1S)-1-methylpropyl]-20-(2-methylpropyl)tetradecahydro-15H-pyrrolo[2,1-f]-[1,15,4,7,10,20]dioxatetrazacyclotricosine-1,4,8,13,16,18,21(17H)-heptone], the “Replication of SARS-CoV-2” value (SARS-CoV-2) is reported as “completely eliminated replication of SARS-CoV-2”, the “Mean time from baseline until undetectable viral load” value (shortened to “Mean time”) (SARS-CoV-2 (COVID-19)) is reported as 11 days and the “Mortality from Day 1 to Day 31, (%)” value (SARS-CoV-2 (COVID-19)) is reported as “(4.5) %”. The “Patients requiring ICU admission from Day 1 to Day 7, (%)” value (SARS-CoV-2 (COVID-19)) was “(11.4) %”, the “Patients requiring ICU admission from Day 1 to Day 15, (%)” value (SARS-CoV-2 (COVID-19)) was “(13.6) %” and the “Patients requiring ICU admission from Day 1 to Day 31, (%)” value (SARS-CoV-2 (COVID-19)) was “(13.6) %”. For the same compound, the “Patients requiring invasive mechanical ventilation and/or ICU admission from Day 1 to Day 7, (%)” value (SARS-CoV-2 (COVID-19)) was “(11.4) %”, the “Patients requiring invasive mechanical ventilation and/or ICU admission from Day 1 to Day 15, (%)” value (SARS-CoV-2 (COVID-19)) was “(13.6) %” and the “Patients requiring invasive mechanical ventilation and/or ICU admission from Day 1 to Day 31, (%)” value (SARS-CoV-2 (COVID-19)) was “(13.6) %”. The “Patients requiring noninvasive mechanical ventilation from Day 1 to Day 7, (%)” value (SARS-CoV-2 (COVID-19)) was “(9.1) %”, the “Patients requiring noninvasive mechanical ventilation from Day 1 to Day 15, (%)” value (SARS-CoV-2 (COVID-19)) was “(11.4) %” and the “Patients requiring noninvasive mechanical ventilation from Day 1 to Day 31, (%)” value (SARS-CoV-2 (COVID-19)) was “(13.6) %”. The “Mean time” value (SARS-CoV-2 (COVID-19); 1.5 mg) was 7 days, the “Mortality from Day 1 to Day 31, (%)” value (SARS-CoV-2 (COVID-19); 1.5 mg) was “(7.1) %” and the “Patients requiring ICU admission from Day 1 to Day 7, (%)” value (SARS-CoV-2 (COVID-19); 1.5 mg) was “(14.3) %”. The “Patients requiring ICU admission from Day 1 to Day 15, (%)” value (SARS-CoV-2 (COVID-19); 1.5 mg) was “(14.3) %”, the “Patients requiring ICU admission from Day 1 to Day 31, (%)” value (SARS-CoV-2 (COVID-19); 1.5 mg) was “(14.3) %” and the “Patients requiring invasive mechanical ventilation and/or ICU admission from Day 1 to Day 7, (%)” value (SARS-CoV-2 (COVID-19); 1.5 mg) was “(14.3) %”. For the same compound, the “Patients requiring invasive mechanical ventilation and/or ICU admission from Day 1 to Day 15, (%)” value (SARS-CoV-2 (COVID-19); 1.5 mg) was “(14.3) %”, the “Patients requiring invasive mechanical ventilation and/or ICU admission from Day 1 to Day 31, (%)” value (SARS-CoV-2 (COVID-19); 1.5 mg) was “(14.3) %” and the “Patients requiring noninvasive mechanical ventilation from Day 1 to Day 7, (%)” value (SARS-CoV-2 (COVID-19); 1.5 mg) was “(21.4) %”. The “Patients requiring noninvasive mechanical ventilation from Day 1 to Day 15, (%)” value (SARS-CoV-2 (COVID-19); 1.5 mg) was “(21.4) %”, the “Patients requiring noninvasive mechanical ventilation from Day 1 to Day 31, (%)” value (SARS-CoV-2 (COVID-19); 1.5 mg) was “(21.4) %” and the “Patients requiring oxygen therapy at Day 7, (%)” value (SARS-CoV-2 (COVID-19); 1.5 mg) was “(71.4) %”. The “Patients discharged from hospital by Day 8, (%)” value (SARS-CoV-2 (COVID-19); 1.5 mg) was “(42.9) %”, the “Patients discharged from hospital by Day 15, (%)” value (SARS-CoV-2 (COVID-19); 1.5 mg) was “(78.6) %” and the “Patients requiring oxygen therapy at Day 15, (%)” value (SARS-CoV-2 (COVID-19); 1.5 mg) was “(28.6) %”. The “Patients discharged from hospital by Day 31, (%)” value (SARS-CoV-2 (COVID-19); 1.5 mg, 744 h) was “(92.9) %”, the “Mean time” value (SARS-CoV-2 (COVID-19); 2 mg) was 13 days and the “Patients requiring ICU admission from Day 1 to Day 7, (%)” value (SARS-CoV-2 (COVID-19); 2 mg) was “(6.7) %”. For the same compound, the “Patients requiring ICU admission from Day 1 to Day 15, (%)” value (SARS-CoV-2 (COVID-19); 2 mg) was “(6.7) %”, the “Patients requiring ICU admission from Day 1 to Day 31, (%)” value (SARS-CoV-2 (COVID-19); 2 mg) was “(6.7) %” and the “Patients requiring invasive mechanical ventilation and/or ICU admission from Day 1 to Day 7, (%)” value (SARS-CoV-2 (COVID-19); 2 mg) was “(6.7) %”. The “Patients requiring invasive mechanical ventilation and/or ICU admission from Day 1 to Day 15, (%)” value (SARS-CoV-2 (COVID-19); 2 mg) was “(6.7) %”, the “Patients requiring invasive mechanical ventilation and/or ICU admission from Day 1 to Day 31, (%)” value (SARS-CoV-2 (COVID-19); 2 mg) was “(6.7) %” and the “Patients requiring noninvasive mechanical ventilation from Day 1 to Day 31, (%)” value (SARS-CoV-2 (COVID-19); 2 mg) was “(6.7) %”. The “Patients requiring oxygen therapy at Day 7, (%)” value (SARS-CoV-2 (COVID-19); 2 mg) was “(66.7) %”, the “Patients discharged from hospital by Day 8, (%)” value (SARS-CoV-2 (COVID-19); 2 mg) was “(60.0) %” and the “Patients discharged from hospital by Day 15, (%)” value (SARS-CoV-2 (COVID-19); 2 mg) was “(93.3) %”. The “Patients requiring oxygen therapy at Day 15, (%)” value (SARS-CoV-2 (COVID-19); 2 mg) was “(6.7) %”, the “Patients discharged from hospital by Day 31, (%)” value (SARS-CoV-2 (COVID-19); 2 mg, 744 h) was “(93.3) %” and the “Patients requiring oxygen therapy at Day 31, (%)” value (SARS-CoV-2 (COVID-19); 2 mg, 744 h) was “(13.3) %”. The “Mean time” value (SARS-CoV-2 (COVID-19); 2.5 mg) was 12 days, the “Mortality from Day 1 to Day 31, (%)” value (SARS-CoV-2 (COVID-19); 2.5 mg) was “(6.7) %” and the “Patients requiring ICU admission from Day 1 to Day 7, (%)” value (SARS-CoV-2 (COVID-19); 2.5 mg) was “(13.3) %”. For the same compound, the “Patients requiring ICU admission from Day 1 to Day 15, (%)” value (SARS-CoV-2 (COVID-19); 2.5 mg) was “(20.0) %”, the “Patients requiring ICU admission from Day 1 to Day 31, (%)” value (SARS-CoV-2 (COVID-19); 2.5 mg) was “(20.0) %” and the “Patients requiring invasive mechanical ventilation and/or ICU admission from Day 1 to Day 7, (%)” value (SARS-CoV-2 (COVID-19); 2.5 mg) was “(13.3) %”. For the same compound, the “Patients requiring invasive mechanical ventilation and/or ICU admission from Day 1 to Day 15, (%)” value (SARS-CoV-2 (COVID-19); 2.5 mg) was “(20.0) %”, the “Patients requiring invasive mechanical ventilation and/or ICU admission from Day 1 to Day 31, (%)” value (SARS-CoV-2 (COVID-19); 2.5 mg) was “(20.0) %” and the “Patients requiring noninvasive mechanical ventilation from Day 1 to Day 7, (%)” value (SARS-CoV-2 (COVID-19); 2.5 mg) was “(6.7) %”.
